Read-outs that look alike come from different tables or passages of the source. Blank lines part the entries; values can stand above or below the compound they belong to.
Columns and labels:
solubility in water = type: physicochemical; conditions: as hydrochloride salt
plasma protein binding = type: in vitro ADME; conditions: read-out: plasma protein binding, free fraction
[1] = in vivo pharmacokinetics in male Sprague-Dawley rats, plasma and brain; conditions: rat; for Kp at 1.5 h: brain, T = 1.5 h, read-out: Brain/Plasma ratio (T = 1.5 h); for Kp at 1.5 h / AUC(0-inf): po
Description: PXT002331 and PXT001858 were administered per os (p.o.) at 10 mg/kg to male Sprague-Dawley rats. Volume of administration was 10 ml/kg. In parallel, PXT002331 was also administered intravenously (i.v.) at 1 mg/kg, with a volume of administration of 2 ml/kg. Blood samples (200 μl) were collected at time ranging from 15 minutes to 24 hours for the p.o. administration and from 5 minutes to 24 hours for the i.v. administration in ice-cold tubes containing 0.2% K2EDTA. Tubes were centrifuged at 10,000 rpm for 5 minutes at 4° C. The plasma (supernatant) was separated in another tube and stored at −80° C. until analysis. Two groups of 3 animals were used for each route of administration: in one group, blood samples were collected to determine the kinetics of plasma exposure over a 24-hour period, and in the second group, blood and brain were collected at one terminal time point (0.5, 1.0, 1.5, 2.0, 4.0 hours) to determine the kinetics of brain exposure and brain/plasma ratio.
The respective parent compound (free base) was analysed in plasma samples and in brain homogenate using a LC-MS/MS method. Concentrations are expressed in ng/ml of plasma or in ng/g of brain tissue.
(§1) Despite their similar oral absorption, PXT002331 has a higher brain/plasma ratio (6.5 versus 2.0 at T=1.5 h; see FIG. 4) leading to a 3-fold improvement in the brain AUC when compared to PXT001858. A posteriori, one potential hypothesis might rely on the difference of phase II conjugation in the intestine and liver during oral absorption. […] Nonetheless, this difference observed in vitro cannot by itself explain the unexpected advantageous PK results obtained with PXT002331. The results obtained in these experiments are furthermore summarized in Tables 1 to 3 below and in FIGS. 1 to 4.

human mGluR4 = human mGluR4 (Homo sapiens, UniProt Q14833); test: calcium assay for agonistic and/or positive allosteric modulator activity on human mGluR4; type: cell-based
Description: The compound of formula (I) according to the invention (i.e., PXT002331) was tested for its agonistic and/or positive allosteric modulator activity on human mGluR4 using the calcium assay described in Example 171 of WO 2011/051478.

[2] = tested on: MPTP macaque model of Parkinson's disease; test: MPTP macaque model of Parkinson's disease; type: in vivo, Macaca fascicularis
Description: FIGS. 5A-F: Evaluation of the anti-parkinsonian efficacy of PXT002331 in the 1-methyl-4-phenyl-1,2,3,6-tetrahydropyridine (MPTP) macaque model of Parkinson's disease (see Example 3). (A) PXT002331 as a stand-alone treatment; oral administration twice a day during 4 days, assessment of parkinsonian scores at day 4; data are mean+s.e.m. over 2 hours observation (n=7 per group; 1 of the 8 monkeys initially used was excluded); “Veh”=vehicle; “LD opt”=L-dopa optimal dose”; *=P<0.05 vs Veh; ***=P<0.001 vs Veh; statistical analysis: Friedman followed by Dunn's. (B) Combined treatment using PXT002331 (25 mg/kg)+low dose of L-dopa (4-9 mg/kg)−parkinsonism time course; oral administration twice a day during 4 days, assessment at day #4; L-dopa optimal dose (“LDopt”): >20 mg/kg; L-dopa suboptimal dose (“LDso”): 4-9 mg/kg; combined administration of L-dopa (suboptimal dose) and PXT002331: twice a day/4 days. […] (D) Combined treatment using PXT002331+low dose of L-dopa−dose-response evaluation for different doses of PXT002331; assessment of parkinsonian scores at day 4; “Veh”=vehicle; “low LD”=low dose of L-dopa; “LD opt”=optimal dose of L-dopa; *=P<0.05 vs low LD; statistical analysis: non-parametric one-way repeated, measures ANOVA (Friedman's test), followed by Dunn's multiple comparison; N=7. (E) Computerized locomotor activity in early-stage PD monkey model for PXT002331 in combination with L-dopa (low dose or optimal dose) upon oral administration; *=P<0.05 vs vehicle; **=P<0.01 vs vehicle; ***=P<0.001 vs vehicle; statistical analysis: Friedman followed by Dunnett's; N=5 (6 monkeys/1 excluded). (F) Combined treatment using PXT002331+optimal dose of L-dopa−disability score and dyskinesia score. The anti-parkinsonian efficacy of the compound of formula (I) according to the present invention (i.e., PXT002331) was evaluated in the 1-methyl-4-phenyl-1,2,3,6-tetrahydropyridine (MPTP) macaque model of Parkinson's disease (using macaques of the species Macaca fascicularis), which reproduces most of the clinical and pathological hallmarks of Parkinson's disease and is considered a “gold standard” (see Porras G et al., Cold Spring Harb Perspect Med., 2(3):a009308, 2012 and references cited therein for a general description of the MPTP model). […] In this experiment, PXT002331 was orally administered twice a day during a period of 4 days, and the parkinsonian score was assessed at day 4 over 2 hours of observation (data are mean values+standard error of the mean (s.e.m.); n=7 monkeys per group). The anti-parkinsonian efficacy of PXT002331 (25 mg/kg) was further evaluated in combination with low (suboptimal) doses of L-dopa (levodopa; 4-9 mg/kg) (see FIGS. 5B and 5C). Doses were orally administered twice a day during 4 days, and assessment of parkinsonian scores took place at day 4 (between 1 and 2 h after L-dopa administration, i.e., between 2 and 3 h after PXT002331 administration). […] The results of a dose-response evaluation of the combination of PXT002331 (at doses from 2 mg/kg to 100 mg/kg) with L-dopa (low dose) are shown in FIG. 5D (the assessment of parkinsonian scores took place at day 4). […] In this experiment, each monkey was equipped with a detector of movements and signals were collected with 24 light beams and a video track recorder in order to descriminate all types of movements. The locomotor activity was measured during 1 hour.

[3] = phase I metabolic stability, CL (h); type: in vitro ADME; conditions: human
Description: (§2) The in vitro ADME profile of PXT002331 was also very similar with reference to phase I metabolic stability: CL (h/r): 55/101 μl/min/mg protein and intestinal absorption: CaCo-2 (A-B, pgp): 4.11.0.10-6 cm/s, no efflux.

[4] = phase I metabolic stability, CL (r); type: in vitro ADME; conditions: rat
Description: as §2

[5] = tested on: UGT (UDP-Glucuronosyl transferase); test: in vitro glucuronidation in rat liver microsomes; type: in vitro ADME; conditions: in vitro in the presence of UGT
Description: as §1

CaCo-2 = test: intestinal absorption CaCo-2 (A-B, pgp); type: in vitro ADME
Description: as §2

[6] = male, Sprague-Dawley, 10 mg/kg p.o.
[7] = male, Sprague-Dawley, plasma, 10 mg/kg p.o.

human mGluR4, sequence (Q14833 33-912): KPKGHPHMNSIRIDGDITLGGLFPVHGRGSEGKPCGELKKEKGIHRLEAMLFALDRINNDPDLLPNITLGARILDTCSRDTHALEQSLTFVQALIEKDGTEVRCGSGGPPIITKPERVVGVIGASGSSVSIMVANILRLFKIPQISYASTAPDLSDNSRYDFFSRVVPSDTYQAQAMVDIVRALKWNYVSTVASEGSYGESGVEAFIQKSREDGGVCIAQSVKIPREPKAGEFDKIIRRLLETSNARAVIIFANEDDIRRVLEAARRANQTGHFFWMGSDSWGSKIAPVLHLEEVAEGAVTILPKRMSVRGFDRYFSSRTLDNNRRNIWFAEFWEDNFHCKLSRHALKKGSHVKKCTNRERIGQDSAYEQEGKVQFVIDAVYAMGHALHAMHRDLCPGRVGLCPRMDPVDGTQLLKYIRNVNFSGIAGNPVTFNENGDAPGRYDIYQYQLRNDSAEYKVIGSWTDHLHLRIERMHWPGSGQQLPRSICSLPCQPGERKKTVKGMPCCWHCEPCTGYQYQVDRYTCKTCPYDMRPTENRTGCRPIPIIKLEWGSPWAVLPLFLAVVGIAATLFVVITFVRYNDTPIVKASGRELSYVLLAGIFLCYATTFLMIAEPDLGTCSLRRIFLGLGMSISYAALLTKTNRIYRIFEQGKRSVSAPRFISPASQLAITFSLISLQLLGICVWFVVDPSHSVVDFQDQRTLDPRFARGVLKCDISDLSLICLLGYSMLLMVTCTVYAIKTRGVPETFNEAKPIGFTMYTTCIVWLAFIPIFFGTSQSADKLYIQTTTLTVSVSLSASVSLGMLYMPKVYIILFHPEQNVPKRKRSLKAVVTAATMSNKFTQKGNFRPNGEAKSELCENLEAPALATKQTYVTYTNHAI

solubility (solubility in water): > 10000 µg/mL
fraction unbound (plasma protein binding): < 0.01
Kp at 1.5 h [1, 6]: 2
AUC(0-inf) [1, 7]: 394 ng·h/mL
Brain AUC inf ([1]; 10 mg/kg p.o.): 838 ng·h/g
Cmax (Brain) ([1]; 10 mg/kg p.o.): 521 ng/G tissue
EC50 (human mGluR4; read-out: pEC50 on human mGluR4 (converted)): 36.3 nM
SMILES: O/N=c1\cc(-c2cc3sccc3cn2)oc2ccc(OCCN3CCOCC3)cc12 [PXT001858, reference compound]

solubility (solubility in water): > 10000 µg/mL
induction of dyskinesia in combination with L-dopa (optimal dose) ([2]; 25 to 100 mg/kg): without inducing dyskinesia
microsomal CLint [3]: 55 µL/min/mg
microsomal CLint [4]: 101 µL/min/mg
level of glucuronidation compared to PXT001858 [5]: much lower level of glucuronidation
fraction unbound (plasma protein binding): < 0.01
CaCo-2 efflux (pgp) (CaCo-2): no efflux
Kp at 1.5 h [1, 6]: 6.5
bioavailability ([1]; male, Sprague-Dawley, plasma, oral, 10 mg/kg p.o. vs 1 mg/kg i.v.): 39%
AUC(0-inf) [1, 7]: 432 ng·h/mL
Brain AUC inf ([1]; 10 mg/kg p.o.): 2713 ng·h/g
Cmax (Brain) ([1]; 10 mg/kg p.o.): 818 ng/G tissue
improvement in brain AUC compared to PXT001858 ([1]; 10 mg/kg p.o.): 3 fold
plasma Cmax relative to PXT001858 ([1]; 10 mg/kg p.o.): 0.7 fold
plasma exposure AUC relative to PXT001858 ([1]; 10 mg/kg p.o.): 1.1 fold
EC50 (human mGluR4; read-out: EC50 corresponding to pEC50 (converted)): ~76 nM
SMILES: ON=c1cc(-c2cc3sccc3cn2)oc2ccc(CCCN3CCOCC3)cc12 [PXT002331, 6-(3-morpholin-4-yl-propyl)-2-(thieno[3,2-c]pyridin-6-yl)-4H-chromen-4-one oxime]
parkinsonian score, combined with suboptimal dose of L-dopa vs L-dopa (suboptimal dose) alone ([2]; 25 mg/kg p.o. + L-dopa 4-9 mg/kg, twice a day 4 days, day 4): considerable improvement in parkinsonian score
locomotor activity in combination with low or optimal dose of L-dopa ([2]; 25 mg/kg p.o., early stage PD monkey model, measured during 1 hour): significant improvement in locomotor activity
disability score in combination with L-dopa (optimal dose) ([2]; increasing doses, 25 to 100 mg/kg): improvement in the disability score
anti-parkinsonian activity (parkinsonian score), stand-alone treatment ([2]; p.o. twice a day for 4 days, score at day 4 over 2 h): potent anti-parkinsonian activity

From patent US20200024285A1, “NOVEL CHROMONE OXIME DERIVATIVE AND ITS USE AS ALLOSTERIC MODULATOR OF METABOTROPIC GLUTAMATE RECEPTORS” (Prexton Therapeutics SA, priority 2014, published 2020)
